Measurements reported in EP4635500A1, “THERAPEUTIC AGENT FOR BACTERIAL INFECTION” (Sumitomo Pharma Co., Ltd., priority 2022, dated 2024).
Values after ≈ are worked out from the molar mass of the structure shown. Where two headings read alike, the source gives them in different places.

Key:
A. baumannii = experiment: MIC, broth microdilution, CDC/FDA Antibiotic Resistance Isolate Bank (Example 7, Tables 9, 13, 14); format: cell-based, Acinetobacter baumannii; conditions: for MIC: read-out: MIC
P. aeruginosa = experiment: MIC, broth microdilution, CDC/FDA Antibiotic Resistance Isolate Bank (Example 7, Tables 10, 15); format: cell-based; conditions: for MIC: Pseudomonas aeruginosa, read-out: MIC
[1] = MIC distribution, metallo-β-lactamase-producing A. baumannii, inhibitor µg/mL in parentheses
[2] = 26 metallo-carbapenemase-producing P. aeruginosa strains, β-lactamase inhibitor µg/mL in parentheses
[3] = 96 strains of P. aeruginosa, β-lactamase inhibitor µg/mL in parentheses

## CC(C)(O/N=C(\C(=O)N[C@@H]1C(=O)N2C(C(=O)[O-])=C(C[N+]3(CCNC(=O)c4ccc(O)c(O)c4Cl)CCCC3)CS[C@H]12)c1csc(N)n1)C(=O)O [Cefiderocol, cefiderocol]
A. baumannii; 55 isolates of A. baumannii
  MICrange: ≤0.06 to 16 µg/mL
A. baumannii; Acinetobacter baumannii, A. baumannii KUB No. 5567, AR Bank #70, OXA-58, OXA-100
  MIC: ≤ 0.06 µg/mL
A. baumannii; Acinetobacter baumannii, A. baumannii KUB No. 5575, AR Bank #78, OXA-71
  MIC: 4 µg/mL (≈ 5.32 µM)
A. baumannii; Acinetobacter baumannii, A. baumannii KUB No. 5580, AR Bank #83, OXA-23, OXA-69, NDM-1
  MIC: 16 µg/mL (≈ 21.3 µM)
A. baumannii; Acinetobacter baumannii, A. baumannii KUB No. 5585, AR Bank #88, OXA-64, NDM-1
  MIC: 2 µg/mL (≈ 2.66 µM)
A. baumannii; Acinetobacter baumannii, A. baumannii KUB No. 5598, AR Bank #101, OXA-24, OXA-65
  MIC: 0.5 µg/mL (≈ 0.665 µM)
A. baumannii; Acinetobacter baumannii, A. baumannii KUB No. 5599, AR Bank #102, OXA-66
  MIC: 0.12 µg/mL (≈ 0.16 µM)
A. baumannii; Acinetobacter baumannii, A. baumannii KUB No. 5706, AR Bank #273, OXA-23, OXA-66
  MIC: 0.12 µg/mL (≈ 0.16 µM)
A. baumannii; Acinetobacter baumannii, A. baumannii KUB No. 5707, AR Bank #274, OXA-66, OXA-72
  MIC: 0.12 µg/mL (≈ 0.16 µM)
A. baumannii; Acinetobacter baumannii, A. baumannii KUB No. 5708, AR Bank #275, OXA-23, OXA-66
  MIC: 0.5 µg/mL (≈ 0.665 µM)
A. baumannii; Acinetobacter baumannii, A. baumannii KUB No. 5709, AR Bank #276, no carbapenemase genes (-)
  MIC: 8 µg/mL (≈ 10.6 µM)
A. baumannii; Acinetobacter baumannii, A. baumannii KUB No. 5710, AR Bank #277, OXA-24, OXA-65
  MIC: 4 µg/mL (≈ 5.32 µM)
A. baumannii; Acinetobacter baumannii, A. baumannii KUB No. 5711, AR Bank #278, OXA-23, OXA-66
  MIC: 0.5 µg/mL (≈ 0.665 µM)
A. baumannii; Acinetobacter baumannii, A. baumannii KUB No. 5712, AR Bank #279, OXA-23, OXA-66
  MIC: 0.25 µg/mL (≈ 0.332 µM)
A. baumannii; Acinetobacter baumannii, A. baumannii KUB No. 5713, AR Bank #280, OXA-66
  MIC: 0.25 µg/mL (≈ 0.332 µM)
A. baumannii; Acinetobacter baumannii, A. baumannii KUB No. 5714, AR Bank #281, OXA-82
  MIC: 0.12 µg/mL (≈ 0.16 µM)
A. baumannii; Acinetobacter baumannii, A. baumannii KUB No. 5715, AR Bank #282, OXA-23, OXA-66
  MIC: 0.5 µg/mL (≈ 0.665 µM)
A. baumannii; Acinetobacter baumannii, A. baumannii KUB No. 5716, AR Bank #283, OXA-23, OXA-66
  MIC: 0.25 µg/mL (≈ 0.332 µM)
A. baumannii; Acinetobacter baumannii, A. baumannii KUB No. 5717, AR Bank #284, OXA-24, OXA-65
  MIC: 0.25 µg/mL (≈ 0.332 µM)
A. baumannii; Acinetobacter baumannii, A. baumannii KUB No. 5718, AR Bank #285, OXA-24, OXA-65
  MIC: 1 µg/mL (≈ 1.33 µM)
A. baumannii; Acinetobacter baumannii, KUB No. 5719, AR Bank #286
  MIC: 0.5 µg/mL (≈ 0.665 µM)
A. baumannii; Acinetobacter baumannii, KUB No. 5720, AR Bank #287
  MIC: 0.5 µg/mL (≈ 0.665 µM)
A. baumannii; Acinetobacter baumannii, KUB No. 5721, AR Bank #288
  MIC: 0.25 µg/mL (≈ 0.332 µM)
A. baumannii; Acinetobacter baumannii, KUB No. 5722, AR Bank #259
  MIC: 0.12 µg/mL (≈ 0.16 µM)
A. baumannii; Acinetobacter baumannii, KUB No. 5723, AR Bank #290
  MIC: 0.5 µg/mL (≈ 0.665 µM)
A. baumannii; Acinetobacter baumannii, KUB No. 5724, AR Bank #291
  MIC: 0.5 µg/mL (≈ 0.665 µM)
A. baumannii; Acinetobacter baumannii, KUB No. 5725, AR Bank #292
  MIC: 0.5 µg/mL (≈ 0.665 µM)
A. baumannii; Acinetobacter baumannii, KUB No. 5726, AR Bank #293
  MIC: 0.5 µg/mL (≈ 0.665 µM)
A. baumannii; Acinetobacter baumannii, KUB No. 5727, AR Bank #294
  MIC: 0.5 µg/mL (≈ 0.665 µM)
A. baumannii; Acinetobacter baumannii, KUB No. 5728, AR Bank #295
  MIC: 0.5 µg/mL (≈ 0.665 µM)
A. baumannii; Acinetobacter baumannii, KUB No. 5729, AR Bank #296
  MIC: 0.5 µg/mL (≈ 0.665 µM)
A. baumannii; Acinetobacter baumannii, KUB No. 5730, AR Bank #297
  MIC: 0.12 µg/mL (≈ 0.16 µM)
A. baumannii; Acinetobacter baumannii, KUB No. 5731, AR Bank #298
  MIC: 0.5 µg/mL (≈ 0.665 µM)
A. baumannii; Acinetobacter baumannii, KUB No. 5732, AR Bank #299
  MIC: 8 µg/mL (≈ 10.6 µM)
A. baumannii; Acinetobacter baumannii, KUB No. 5733, AR Bank #300
  MIC: 0.25 µg/mL (≈ 0.332 µM)
A. baumannii; Acinetobacter baumannii, KUB No. 5734, AR Bank #301
  MIC: 1 µg/mL (≈ 1.33 µM)
A. baumannii; Acinetobacter baumannii, KUB No. 5735, AR Bank #302
  MIC: 4 µg/mL (≈ 5.32 µM)
A. baumannii; Acinetobacter baumannii, KUB No. 5736, AR Bank #303
  MIC: 0.12 µg/mL (≈ 0.16 µM)
A. baumannii; Acinetobacter baumannii, KUB No. 5737, AR Bank #304
  MIC: ≤ 0.06 µg/mL
A. baumannii; Acinetobacter baumannii, KUB No. 5738, AR Bank #305
  MIC: 0.25 µg/mL (≈ 0.332 µM)
A. baumannii; Acinetobacter baumannii, KUB No. 5739, AR Bank #306
  MIC: 1 µg/mL (≈ 1.33 µM)
A. baumannii; Acinetobacter baumannii, KUB No. 5740, AR Bank #307
  MIC: 0.12 µg/mL (≈ 0.16 µM)
A. baumannii; Acinetobacter baumannii, KUB No. 5741, AR Bank #308
  MIC: 0.25 µg/mL (≈ 0.332 µM)
A. baumannii; Acinetobacter baumannii, KUB No. 5742, AR Bank #309
  MIC: 4 µg/mL (≈ 5.32 µM)
A. baumannii; Acinetobacter baumannii, KUB No. 5743, AR Bank #310
  MIC: 2 µg/mL (≈ 2.66 µM)
A. baumannii; Acinetobacter baumannii, KUB No. 5744, AR Bank #311
  MIC: 0.5 µg/mL (≈ 0.665 µM)
A. baumannii; Acinetobacter baumannii, KUB No. 5745, AR Bank #312
  MIC: 0.25 µg/mL (≈ 0.332 µM)
A. baumannii; Acinetobacter baumannii, KUB No. 5746, AR Bank #313
  MIC: 1 µg/mL (≈ 1.33 µM)
A. baumannii; Acinetobacter baumannii, 55 isolates of A. baumannii, read-out: MIC50
  MIC50: 0.5 µg/mL (≈ 0.665 µM)
A. baumannii; Acinetobacter baumannii, 55 isolates of A. baumannii, read-out: MIC80
  MIC80: 2 µg/mL (≈ 2.66 µM)
A. baumannii; Acinetobacter baumannii, 55 isolates of A. baumannii, read-out: MIC90
  MIC90: 4 µg/mL (≈ 5.32 µM)
A. baumannii; [1]
  Number of isolates at MIC 2 µg/mL: 2
  Number of isolates at MIC 16 µg/mL: 1
P. aeruginosa; [2]
  MIC against 26 metallo-carbapenemase-producing strains MIC50: 0.5 µg(mL)
  MIC against 26 metallo-carbapenemase-producing strains MIC90: 2 µg(mL)
  MIC against 26 metallo-carbapenemase-producing strains MICrange: 0.25 - 4 µg(mL)
P. aeruginosa; [3]
  MIC against 96 strains of P. aeruginosa MIC50: 0.5 µg(mL)
  MIC against 96 strains of P. aeruginosa MIC90: 2 µg(mL)
  MIC against 96 strains of P. aeruginosa MICrange: ≤0.06 - 4 µg(mL)
P. aeruginosa; P. aeruginosa KUB No. 579, AR Bank # 447
  MIC: 0.12 µg/mL (≈ 0.16 µM)
P. aeruginosa; P. aeruginosa KUB No. 5083, AR Bank # 250
  MIC: 4 µg/mL (≈ 5.32 µM)
P. aeruginosa; P. aeruginosa KUB No. 5551, AR Bank # 54
  MIC: 0.5 µg/mL (≈ 0.665 µM)
P. aeruginosa; P. aeruginosa KUB No. 5561, AR Bank # 64
  MIC: 2 µg/mL (≈ 2.66 µM)
P. aeruginosa; P. aeruginosa KUB No. 5587, AR Bank # 90
  MIC: 1 µg/mL (≈ 1.33 µM)
P. aeruginosa; P. aeruginosa KUB No. 5589, AR Bank # 92
  MIC: 2 µg/mL (≈ 2.66 µM)
P. aeruginosa; P. aeruginosa KUB No. 5591, AR Bank # 94
  MIC: 2 µg/mL (≈ 2.66 µM)
P. aeruginosa; P. aeruginosa KUB No. 5592, AR Bank # 95
  MIC: 0.5 µg/mL (≈ 0.665 µM)
P. aeruginosa; P. aeruginosa KUB No. 5597, AR Bank # 100
  MIC: 0.5 µg/mL (≈ 0.665 µM)
P. aeruginosa; P. aeruginosa KUB No. 5600, AR Bank # 103
  MIC: 1 µg/mL (≈ 1.33 µM)
P. aeruginosa; P. aeruginosa KUB No. 5602, AR Bank # 105
  MIC: 1 µg/mL (≈ 1.33 µM)
P. aeruginosa; P. aeruginosa KUB No. 5605, AR Bank # 108
  MIC: 0.5 µg/mL (≈ 0.665 µM)
P. aeruginosa; P. aeruginosa KUB No. 5607, AR Bank # 110
  MIC: 0.25 µg/mL (≈ 0.332 µM)
P. aeruginosa; P. aeruginosa KUB No. 5608, AR Bank # 111
  MIC: 0.5 µg/mL (≈ 0.665 µM)
P. aeruginosa; P. aeruginosa KUB No. 5662, AR Bank # 229
  MIC: 0.12 µg/mL (≈ 0.16 µM)
P. aeruginosa; P. aeruginosa KUB No. 5663, AR Bank # 230
  MIC: 0.5 µg/mL (≈ 0.665 µM)
P. aeruginosa; P. aeruginosa KUB No. 5664, AR Bank # 231
  MIC: 2 µg/mL (≈ 2.66 µM)
P. aeruginosa; P. aeruginosa KUB No. 5665, AR Bank # 232
  MIC: 0.12 µg/mL (≈ 0.16 µM)
